# Source: patent US20040224969A1, “Salts of substituted 1,2,3,4-tetrahydroquinoline-2-carboxylic acid compounds” (Gruenenthal GmbH, priority 2001, published 2004)
# Columns and labels:
# [1] = system: formalin-induced nociception; assay: Formalin test on the rat (second phase); assay type: in vivo; conditions: late phase
# Experimental: The experiments for determining the antinociceptive action of the compounds of formula I according to the invention were performed in the formalin test on male rats (Sprague-Dawley, 150-170 g).
# In the formalin test a distinction is made between the first (early) phase (0-15 min after the formalin injection) and the second (late) phase (15-60 min after the formalin injection) (D. Dubuisson, S. G. Dennis, Pain, 4, 161-174 (1977)). The early phase represents a model for acute pain as a direct reaction to the formalin injection, while the late phase is regarded as a model for persistent (chronic) pain (T. J. Coderre, J. Katz, A. L. Vaccarino, R. Melzack, Pain, vol. 52, p. 259, 1993). […]
# A single subcutaneous formalin injection (50 μl, 5%) in the dorsal side of the right back paw of free-moving experimental animals induced a nociceptive reaction which is represented by the following behavioral parameters: lifting and holding of the affected paw (score 1), shaking or twitching (score 2), licking and biting (score 3). The differing modes of behavior triggered by the formalin injection were recorded continuously by observing the animals in the late phase of the formalin test, and differently weighted in an evaluation. Normal behavior, where the animal distributes its weight evenly over all four paws, was recorded as a score of 0. […]
# [2] = target: T1, glycine binding site of the NMDA receptor channel (Rattus norvegicus, UniProt P35439); assay: Receptor binding (glycine binding site of the NMDA receptor channel), (3H)-MDL 105.519 displacement on brain membrane homogenates; conditions: for Displacement (%, 10 μmol/l): displacement of (3H)-MDL 105.519 at 10 μmol/l of substance; for Ki: rat cortex/hippocampus membranes, 1 nmol/l (3H)-MDL 105.519, mean of 3 independent experiments
# T1 construct: from tissue; host or cells: rat brain cortex and hippocampus membrane homogenate (male Wistar rats)
# Experimental: Receptor binding (glycine binding site of the NMDA receptor channel)
# The tests for determining the affinity of the compounds of formula I according to the invention for the glycine binding site of the NMDA receptor channel were carried out on brain membrane homogenates (homogenate of the cortex and hippocampus areas of the brain of male rats, Wistar strain) [B. M. Baron, B. W. Siegel, B. L. Harrison, R. S. Gross, C. Hawes and P. Towers, Journal Of Pharmacology and Experimental Therapeutics, vol. 279, p. 62, 1996].
# For this purpose, the cortex and hippocampus were freed without cutting from freshly removed rat brains, homogenized in 5 mmol/l TRIS acetate buffer, 0.32 mol/l sucrose, pH 7.4 (10 ml/g of fresh weight), using a Potter homogenizer (Braun/Melsungen, 10 piston strokes at 500 rpm), with ice cooling, and then centrifuged for 10 minutes at 1000 g and 4° C. The first supernatant was collected and the sediment was homogenized again with 5 mmol/l TRIS acetate buffer, 0.32 mol/l sucrose, pH 7.4 (5 ml/g of original fresh weight), using the Potter homogenizer (10 piston strokes at 500 rpm), with ice cooling, and centrifuged for 10 minutes at 1000 g and 4° C. The resulting supernatant was combined with the supernatant from the first centrifugation and centrifuged at 17,000 g for 20 minutes at 4° C. The supernatant after this centrifugation was discarded and the membrane sediment was taken up with 5 mmol/l TRIS acetate buffer, pH 8.0 (20 ml/g of original fresh weight), and homogenized with 10 piston strokes at 500 rpm.
# The membrane homogenate was then incubated for 1 hour at 4° C. and centrifuged for 30 minutes at 50,000 g and 4° C. The supernatant was discarded and the centrifuge tube containing the membrane sediment was sealed with Parafilm and frozen for 24 hours at −20° C. On the following day the membrane sediment was thawed, taken up with ice-cold 5 mmol/l TRIS acetate buffer, 0.1% saponin (w/v), pH 7.0 (10 ml/g of original fresh weight), homogenized with 10 piston strokes at 500 rpm and then centrifuged for 20 minutes at 50,000 g and 4° C. The resulting supernatant was discarded and the sediment was taken up in a small volume with 5 mmol/l TRIS acetate buffer, pH 7.0 (approximately 2 ml/g of original fresh weight), and homogenized again with 10 piston strokes at 500 rpm. After determination of the protein content, the membrane homogenate was adjusted to a protein concentration of 10 mg protein/ml with 5 mmol/l TRIS acetate buffer, pH 7.0, and frozen in aliquots until tested.
# For the receptor binding test, aliquots were thawed, diluted to 1:10 with 5 mmol/l TRIS acetate buffer, pH 7.0, homogenized with 10 piston strokes at 500 rpm using the Potter homogenizer (10 piston strokes at 500 rpm), with ice cooling, and centrifuged for 60 minutes at 55,000 g and 4° C. […]
# In the binding test, 50 mmol/l TRIS acetate buffer, pH 7.0, was used as the buffer and 1 nmol/l (^3H)-MDL 105.519 (B. M. Baron et al., 1996) was used as the radioactive ligand. The proportion of non-specific binding was determined in the presence of 1 mmol/l glycine.
# In other preparations the compounds according to the invention were added in concentration series and the displacement of the radioactive ligand from its specific binding to the glycine binding site of the NMDA receptor channel was measured. […]
# AMPA receptor channels = assay: AMPA-induced ionic fluxes on RNA-injected Xenopus oocytes (two-electrode voltage clamp); assay type: cell-based, rat; conditions: 10 μmol/l compound, AMPA 100 μmol/l, n = 2
"Displacement (%, 10 μmol/l) [2] [%]",Ki [2] [nM],SMILES,"% inhibition of the formalin-induced nociception ([1]; i.v., 68.1 mg/kg) [%]","% inhibition of the formalin-induced nociception ([1]; i.p., 21.5 mg/kg) [%]",AMPA-induced ionic fluxes Inhibition at 10 μmol/l of the compounds according to the invention (AMPA receptor channels)
90,350,"O=C([O-])C1Nc2cc(Cl)cc(Cl)c2C2C=CCC12.[Na+] (centres unmarked) [Example 55, 7,9-Dichloro-3a,4,5,9b-tetrahydro-3H-cyclopenta [c]quinoline-4-carboxylate; sodium salt]",56,,
100,300,"O=C(O)C1Nc2ccc(Cl)cc2C2C=CCC12 (centres unmarked) [Example 2, 8-Chloro-3a,4,5,9b-tetrahydro-3H-cyclopenta [c]quinoline-4-carboxylic acid]",,,
97,,"O=C([O-])C1Nc2cc(Cl)cc(Cl)c2C2CCCC12.[Na+] (centres unmarked) [Example 54, 7,9-Dichloro-2,3,3a,4,5,9b-hexahydro-1H-cyclopenta [c]quinoline-4-carboxylate; sodium salt]",,,
,,"O=C(O)C1Nc2cc(Cl)cc(Cl)c2C2C=CCC12 (centres unmarked) [Example 1, 7,9-Dichloro-3a,4,5,9b-tetrahydro-3H-cyclopenta [c]quinoline-4-carboxylic acid]",,64.5,5.4% (n = 2)
